One test concerns the target T1, CCK-B (Cavia porcellus, UniProt H0VZC5).
T1 construct: guinea pig brain (CCK-B); from tissue; host or cells: guinea pig brain
T1 sequence (H0VZC5 1-426): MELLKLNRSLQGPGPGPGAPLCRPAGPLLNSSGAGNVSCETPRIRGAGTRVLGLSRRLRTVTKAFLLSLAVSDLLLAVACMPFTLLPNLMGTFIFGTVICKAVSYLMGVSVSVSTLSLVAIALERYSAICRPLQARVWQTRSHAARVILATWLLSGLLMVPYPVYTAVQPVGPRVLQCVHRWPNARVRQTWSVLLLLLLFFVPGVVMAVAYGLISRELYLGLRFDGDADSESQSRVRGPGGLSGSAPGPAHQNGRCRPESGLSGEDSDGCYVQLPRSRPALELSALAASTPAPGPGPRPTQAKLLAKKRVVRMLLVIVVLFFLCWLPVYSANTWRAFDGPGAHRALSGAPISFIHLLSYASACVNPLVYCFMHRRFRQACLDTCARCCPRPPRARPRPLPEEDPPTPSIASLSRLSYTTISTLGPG
The test is described as follows: displacement of specific 125I-CCK from guinea pig brain (CCK-B receptor binding). How it is done: The CCK-A and CCK-B antagonising activity of the compounds described herein was evaluated using the assays described in published European patent application no. 0514133. The method essentially involves determining the concentration of the test compound required to displace 50% of the specific ^125 I-CCK from rat pancreas (CCK-A) or guinea pig brain (CCK-B). The data in Table 1 were obtained for compounds of the Examples.

Another test deals with T2, CCK-A (Rattus norvegicus, UniProt P30551).
T2 sequence (P30551 1-444): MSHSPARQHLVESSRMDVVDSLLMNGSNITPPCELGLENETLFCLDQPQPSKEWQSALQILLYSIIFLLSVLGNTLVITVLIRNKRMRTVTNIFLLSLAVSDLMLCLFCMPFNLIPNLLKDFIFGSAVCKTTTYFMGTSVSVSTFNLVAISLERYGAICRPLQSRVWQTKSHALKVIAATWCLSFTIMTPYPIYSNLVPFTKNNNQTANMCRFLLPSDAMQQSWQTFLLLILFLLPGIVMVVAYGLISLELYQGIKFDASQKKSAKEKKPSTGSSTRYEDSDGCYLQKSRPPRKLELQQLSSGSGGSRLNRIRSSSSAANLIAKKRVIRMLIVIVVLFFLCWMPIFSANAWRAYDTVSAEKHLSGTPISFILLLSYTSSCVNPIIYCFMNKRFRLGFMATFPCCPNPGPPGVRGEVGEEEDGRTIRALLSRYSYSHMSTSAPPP
The test is described as follows: biochemical. In kind it is binding. The settings on record: rat pancreas (CCK-A), 125I-CCK. The procedure:
The CCK-A and CCK-B antagonising activity of the compounds described herein was evaluated using the assays described in published European patent application no. 0514133. The method essentially involves determining the concentration of the test compound required to displace 50% of the specific ^125 I-CCK from rat pancreas (CCK-A) or guinea pig brain (CCK-B).

Setting [1] is: read-out: CCK RECEPTOR BINDING RESULTS IC50 125I-CCK Brain.
Setting [2] is: read-out: CCK RECEPTOR BINDING RESULTS IC50 125I-CCK Pancreas.

Where a name gives a salt, the structure may show the parent alone. Read-outs that look alike come from different tables or passages of the source.

Consider `CCCN1C(=O)C(NC(=O)Nc2cccc(C)c2)N=C(N(C)C2CCCCC2)c2ccccc21` (single isomer, unassigned; (-)) [Example 61, (-)-5-(N-Cyclohexyl-N-methylamino)-2,3-dihydro-2-oxo-1-propyl-1H-1,4-benzodiazepin-3-yl-N'[3-methylphenyl]urea], for which the figures for the half-inhibitory concentration (IC50) at CCK-B (setting [1]) and on CCK-A (setting [2]) were 0.22 nM and 704 nM, respectively.

`Cc1cccc(NC(=O)NC2N=C(N(C)C3CCCCC3)c3ccccc3N(C)C2=O)c1` (single isomer, unassigned; (-)) [Example 64, (-)5-(N-Cyclohexyl-N-methylamine)-2,3-dihydro-2-oxo-1-methyl-1H-1,4-benzodiazepin-3-yl-N'-[3-methylphenyl]urea. Hydrochloride]: the IC50 was determined as 0.22 nM at CCK-B (setting [1]) and 2070 nM at CCK-A (setting [2]).

In the case of `Cc1cccc(NC(=O)NC2N=C(N(C)C3CCCCCC3)c3ccccc3N(C)C2=O)c1` (single isomer, unassigned; (-)) [Example 67, (-)-5-(N-Cycloheptyl-N-methylamino)-2,3-dihydro-1-methyl-2-oxo-1H-1,4-benzodiazepin-3-yl-N'-[3-methylphenyl]urea, Hydrochloride], the IC50 on CCK-B (setting [1]) came out at 0.1 nM; at CCK-A (setting [2]), 2000 nM.

As for `CN1C(=O)C(NC(=O)Nc2ccc3c(c2)CCC3)N=C(N(C)C2CCCCCC2)c2ccccc21` (single isomer, unassigned; (-)) [Example 70, (-)-5-(N-Cycloheptyl-N-methylamino)-2,3-dihydro-1-methyl-2-oxo-1H-1,4-benzodiazepin-3-yl-N'-[5-indanyl]urea. Hydrochloride], the concentration for half-maximal inhibition (IC50) was 0.61 nM at CCK-B (setting [1]) and > 3000 nM on CCK-A (setting [2]).

Turning to `CN1C(=O)C(NC(=O)c2cc3ccccc3[nH]2)N=C(N2CC3CCC(CC3)C2)c2ccccc21` (single isomer, unassigned; (-)) [Example 88, (-)-N-(5-(3-Azabicyclo[3,2,2]nonan-3-yl)-2,3-dihydro-1-methyl-2-oxo-1H-1,4-benzodiazepin-3-yl)-1H-indole-2-carboxamide hydrochloride], the results for the IC50 at CCK-B (CCK RECEPTOR BINDING RESULTS IC50 125I-CCK Brain) and on CCK-A (CCK RECEPTOR BINDING RESULTS IC50 125I-CCK Pancreas) were 66 nM and 393 nM, respectively.

Consider `Cc1cccc(NC(=O)NC2N=C(N3[C@H](C)CCC[C@@H]3C)c3ccccc3N(C)C2=O)c1` (stereo partly drawn) [Example 6, N-[3(R,S)-2,3-Dihydro-5-(cis-2,6-dimethylpiperidin-1-yl)-1-methyl-2-oxo-1H-1,4-benzodiazepin-3-yl]N'-[3-methylphenyl]urea], for which the figures for the concentration for half-maximal inhibition (IC50) on CCK-B (setting [1]) and at CCK-A (setting [2]) were 10.9 nM and 235 nM, respectively.

For `C[C@@H]1CCC[C@H](C)N1C1=NC(NC(=O)Nc2ccc3c(c2)CCC3)C(=O)N(C)c2ccccc21` (stereo partly drawn) [Example 13, N-[3(R,S)-2,3-Dihydro-5-(cis-2.6-dimethylpiperidin-1-yl)-1-methyl-2-oxo-1H-1,4-benzodiazepin-3-yl]N'-[indan-5-yl]urea], the IC50 stood at 1.53 nM at CCK-B (setting [1]) and 496 nM on CCK-A (setting [2]).

As for `Cc1cccc(NC(=O)NC2N=C(N3C[C@@H](C)O[C@@H](C)C3)c3ccccc3N(C)C2=O)c1` (stereo partly drawn) [Example 16, N-[3(R,S)-2,3-Dihydro-5-(cis-2,6-dimethylmorpholin-4-yl)-1-methyl-2-oxo-1H-1,4-benzodiazepin-3-yl]N'-[3-methylphenyl]urea], the 50% inhibitory concentration (IC50) is 19.1 nM at CCK-B (setting [1]) and 2650 nM on CCK-A (setting [2]).

Regarding `CCCN1C(=O)C(NC(=O)Nc2cccc(C)c2)N=C(N2C[C@@H]3C[C@H]2CN3C)c2ccccc21` (stereo partly drawn) [Example 32, N-[3(R,S)-2,3-Dihydro-5-((1S,4S)-5-methyl-2,5-diazabicyclo-[2,2,1]heptan-2-yl)-2-oxo-1-propyl-1H-1,4-benzodiazepin-3-yl]-N'-[3-methylphenyl]urea], the half-inhibitory concentration (IC50) at CCK-B (setting [1]) was 22 nM; at CCK-A (setting [2]), > 3000 nM.

Regarding `CC(C)CN1C(=O)C(NC(=O)[C@@H]2Cc3ccccc3N2)N=C(N2CCCCCC2)c2ccccc21` (stereo partly drawn) [Example 93, 3(R,S)-N-(2,3-Dihydro-5-(homopiperidin-1-yl)-1-(2-methylpropyl)-2-oxo-1H-1,4-benzodiazepin-3-yl)-(2S)-indoline-2-carboxamide], the results for the half-maximal inhibitory concentration (IC50) at CCK-B (setting [1]) and on CCK-A (setting [2]) were 348 nM and 101 nM, respectively.

As to “(+)-[5-(N-Cycloheptyl-N-methylamino)-2,3-dihydro-1ethyl-2-oxo-1H-1,4-benzodiazepin-3-yl ]-N'-[5-indanyl ]urea Hydrochloride [Example 71]”, the IC50 on CCK-B (setting [1]) was determined as 86 nM; on CCK-A (setting [2]), 145 nM.
